≈ marks a conversion by molar mass, not a printed value.

Compound `CCCCC/C=C\C/C=C\CCCCCCCC(=O)OC` displayed a logP of 6.82.

The compound `CCCCCCCCCCCC(=O)OCCCC` yielded a log partition coefficient (logP) of 6.51.

`CCCCCCCCCCCCCC(=O)OC` came in with a lipophilicity (logP) of 6.41.

In the case of `CCCCCCCCCCCCCCCCCCCC(=O)OC`, the log partition coefficient (logP) is 9.3.

Compound `CCCCCCCCCCCC(=O)OCC` had a log partition coefficient (logP) of 5.71.

`CCCCCCCC/C=C\CCCCCCCCCCCC(=O)OC` yielded a lipophilicity (logP) of 9.32.

Consider `CCCCCCCCCCCCCCCCCC(=O)OC`, for which the logP stood at 8.35.

In the case of `CCCCCCCCCCCC(=O)OCC(CC)CCCC` (stereo not given), the lipophilicity (logP) was 8.03.

The compound `CCCCCCCCCCCC(=O)OC` registered a lipophilicity (logP) of 5.41.

Compound `CCCCCCCCCCCCCCCCCCCCCC(=O)OC` showed a logP of 10.2.

`CCCCCCCC/C=C\CCCCCCCC(=O)OC` registered a logP of 7.45.

As for `CC/C=C\C/C=C\C/C=C\CCCCCCCC(=O)OC`, the lipophilicity (logP) was 6.29.

`CCCCCCCCCCCC(=O)OCCC` gave a log partition coefficient (logP) of 6.11.

In turn, `CCCCCCCCCCCCCCCC(=O)OC` came in with a logP of 7.38.

With `CCCCCCCCCCc1ccccc1`, the solubility (25 °C) is 0.011 µM (≈ 2.4 ng/mL). In other words, the double-digit nanomolar range.

Values taken from the OPERA property sets (Mansouri et al. 2018).
